Measurements: US7887835B2, “Compound comprising a fluorine-substituted alkyl group and a liposome contrast medium comprising the compound” (priority 2006, dated 2011)
Like-named read-outs stand apart in the source and are kept apart here.

Assays:
[1] = Preparation of liposome: maximum amount of compound forming liposome, particle size; assay type: physicochemical; settings: with dipalmitoyl-PC 50 nmol + dipalmitoyl-PS 50 nmol, 0.9% physiological saline, ultrasonicated
Experimental: According to the method described in J. Med. Chem., 25 (12), 1500 (1982), the disclosure of which is expressly incorporated by reference herein in its entirety, dipalmitoyl-PC (Funakoshi, No. 1201-41-0225), dipalmitoyl-PS (Funakoshi, No. 1201-42-0237), and the compound of the present invention, in the ratio described below, were dissolved in chloroform contained in an eggplant-shaped flask to obtain a uniform solution, and then the solvent was evaporated under reduced pressure to obtain a thin membrane formed on the bottom of the flask. The thin membrane was dried in vacuo, then added with an appropriate volume of 0.9% physiological saline (Hikari Pharmaceutical, No. 512) and ultrasonicated (probe type oscillator, Branson, No. 3542, 0.1 mW) for 5 minute with ice cooling to obtain a uniform liposome dispersion. Size of the particles contained in the resulting dispersion was measured by using WBC analyzer (Nihon Kohden, A-1042). The particle sizes were 85 to 110 nm.
Liposome formulation having the ratio of PC:PS:Compound d1-6=50:50:40 (nmol), and a particle sizes of 85 to 120 nm are prepared from a chloroform solution of PC (dipalmitoyl-phosphatidylcholine Funakoshi, No. 850355C), PS (dipalmitoyl-phosphatidylserine Funakoshi, No. 840037C), and Compound d1-6.

[2] = system: vascular smooth muscle cells; assay: Introduced amount of the compounds to vascular smooth muscle cells (mixture culture with macrophage); assay type: cell-based; settings: liposome PC 50 nmol + PS 50 nmol + compound, 37° C., 5% CO2, 24 hours
Experimental: The above liposome agent was added to a mixture culture system of vascular smooth muscle cells and macrophage, described in WO 01/082897, the disclosure of which is expressly incorporated by reference herein in its entirety. After cultivation under 37° C., 5% CO2 for 24 hours, the amount of the compounds introduced to the vascular smooth muscle cells were quantitated.

[3] = system: ICR male mice; assay type: in vivo
Experimental: Six-week old ICR male mice (Charles River Japan) were purchased, and after quarantine for 1 week, acclimatized for 1 week in a clean animal cage (air-conditioning: HEPA filter of class 1000, room temperature: 20 to 24° C., humidity: 35 to 60%). Then, in order to obtain the MTD value, a suspension of the test compound was administered from the caudal vein. The suspension was administered by using physiological saline (Hikari Pharmaceutical) or a glucose solution (Otsuka Pharmaceutical) as a medium. On the basis of the MTD value obtained, the suspension was administered everyday from the caudal vein for three consecutive days in an amount corresponding to ½ of the MTD value (n=3). Symptoms were observed up to 6 hours after each administration to observe neurotoxicity, and then autopsy was performed to examine major organs.
Compound (MTD (mg/kg)): neurotoxicity (“−” indicates negative for neurotoxicity, and “+” indicate positive for neurotoxicity)

[4] = suspension administered from the caudal vein, ICR male mice

Row | Compound | Maximum amount forming liposome [1] [nmol] | Introduced amount [2] [nmol/mg protein] | MTD [3, 4] [mg/kg] | MTD ([3]; mouse, in vivo) [mg/kg]
1 | CC(C)CCC[C@@H](C)[C@H]1CC[C@H]2[C@@H]3CC=C4C[C@@H](OC(=O)Oc5cc(C(F)(F)F)cc(C(F)(F)F)c5)CC[C@]4(C)[C@H]3CC[C@]12C [Compound b1-1] | 40 | 17.5 | 400 | 
2 | CC(C)CCC[C@@H](C)[C@H]1CC[C@H]2[C@@H]3CC=C4C[C@@H](OC(=O)CCCCCCCCCC(C)Oc5cc(C(F)(F)F)cc(C(F)(F)F)c5)CC[C@]4(C)[C@H]3CC[C@]12C (some centres unmarked) [Compound b1-8] | 20 | 8.9 | 400 | 
3 | CC(C)CCC[C@@H](C)[C@H]1CC[C@H]2[C@@H]3CC=C4C[C@@H](OC(=O)CCC(=O)Oc5cc(C(F)(F)F)cc(C(F)(F)F)c5)CC[C@]4(C)[C@H]3CC[C@]12C [Compound b4-2] | 20 | 10.6 | 400 | 
4 | O=C(CCCCCCCC(F)(F)C(F)(F)C(F)(F)C(F)(F)C(F)(F)C(F)(F)F)OCC(COC(=O)CN1CCOCC1)OC(=O)CCCCCCCC(F)(F)C(F)(F)C(F)(F)C(F)(F)C(F)(F)C(F)(F)F (centres unmarked) [Compound e1-6] | 40 |  |  | 400
